Source: paper PMC9696085, “Fully Symmetric Cyclodextrin Polycarboxylates: How to Determine Reliable Protonation Constants from NMR Titration Data” (International Journal of Molecular Sciences, 2022)
“And” between values parts separate entries of the source, which are not always exact repeats. Equal entries are not always repeated. Where two headings read alike, the source gives them in different places.

Legend:
[1] = design: method as in doi:10.1021/jp0340820; conditions: cited from earlier work
[2] = design: method as in PMID 18613172; conditions: literature, cited from earlier work
[3] = 1H NMR-pH titration, protonation constants; format: physicochemical
Method: The pH meter readings were recorded using a Metrohm pH meter, equipped with a Metrohm 6.0234.110 combined glass electrode. A four-point calibration using pH 2.00, pH 4.00, pH 7.00 and pH 11.00 standard buffer solutions were performed directly before pH adjustments. The pH measurements were performed in 25 mL vessels with proper stirring before transferring 600 μL sample solutions into the NMR tubes. Solutions were prepared in the pH range of 1.50–8.70 with 0.30 increments using 0.9 M, 0.5 M and 0.1 M sodium hydroxide and hydrochloric acid solutions in H2O:D2O = 9:1.
For structural characterizations of CD derivatives in D2O, a 600 MHz Varian DDR NMR spectrometer equipped with a 5 mm inverse-detection gradient probe or a 400 MHz Varian Mercury Plus spectrometer equipped with a 5mm Varian 400 Automation Triple Resonance Broadband Pulsed Field Gradient probe was used. For NMR-pH titrations, the same instruments were used. The pH-dependent series of ^1H NMR spectra were recorded in a solvent mixture of H2O:D2O = 9:1 by volume, where the constant ionic strength and the buffer capacity were adjusted using 0.05 M sodium chloride and 0.05 M acetic acid-d4. An appropriate amount of CD was weighed to obtain a 1 mM solution and finally one drop of methanol was added as a chemical shift reference (3.310 ppm). The water resonance was diminished by the dpfgse pulse sequence or presaturation. All the spectra were processed using the MestReNova v9.0.1-13254 (Mestralab Research, S.L., Santiago de Compostela, Spain) software.
The standard macroscopic evaluation of NMR-pH titration curves (Equation (3) in Section 2.2) was performed with the following software tools: Microcal Origin Pro 8 (OriginLab Corp., Northampton, MA, USA), HypNMR2018 [38], OPIUM [39] and home-written R scripts (R version 4.1.2, The R Foundation, Vienna, Austria) using the nls module. The equidistant macroscopic (Equation (8)) and Q-fitting (Equations (4) and (11)) models were fitted both by Origin and our R-scripts to verify their equivalent performance regarding statistical description of the parameter estimates. The microscopic cluster expansion model in Section 2.5 requires summation of >100 variables which is unfeasible in the form of an explicit model function required by commercial data-fitting software like Origin. The enumeration of microspecies was therefore accomplished in a custom-written R script. To assess the robustness of our data-fitting model as well as the error propagation of the optimized log k and pε parameters to the derived log K macroconstants, Monte Carlo simulations on >1000 replicates were performed in R.

[4] = cited from earlier work
[5] = ED macro or Q-fitting evaluation, ? = physically unrealistic, SD in parentheses
[6] = ED macro or Q-fitting evaluation, H2O:D2O = 9:1, 0.05 M NaCl, SD in parentheses
[7] = converted from optimized microscopic basicity parameters (site-binding model)
[8] = from ED macro or Q-fitting macroconstants by Eq. 18
[9] = from ED macro or Q-fitting macroconstants by Eq. 18, ? = physically unrealistic
[10] = site-binding (SB) microscopic evaluation
[11] = site-binding (SB) microscopic evaluation, converted from log kA and pε, errors by Monte Carlo
[12] = ED macro, Eq. (7) evaluation, calculated (*)
[13] = Macroscopic, Eq. (2) evaluation
[14] = Macroscopic, Eq. (2) evaluation, calculated (*)
[15] = Microscopic, Eq. (3) evaluation, calculated (*)
[16] = Literature, ref Hawkins, Perrin, Inorg. Chem. 2 (1963) 843

oxidized glutathione
pε (carboxylate interactions) [1]: ≈ 0.1

O=C(O)CCSC[C@H]1O[C@@H]2O[C@H]3[C@H](O)[C@@H](O)[C@@H](O[C@H]4[C@H](O)[C@@H](O)[C@@H](O[C@H]5[C@H](O)[C@@H](O)[C@@H](O[C@H]6[C@H](O)[C@@H](O)[C@@H](O[C@H]7[C@H](O)[C@@H](O)[C@@H](O[C@H]8[C@H](O)[C@@H](O)[C@@H](O[C@H]1[C@H](O)[C@H]2O)O[C@@H]8CSCCC(=O)O)O[C@@H]7CSCCC(=O)O)O[C@@H]6CSCCC(=O)O)O[C@@H]5CSCCC(=O)O)O[C@@H]4CSCCC(=O)O)O[C@@H]3CSCCC(=O)O [Suβ-CD, subetadex]
log K1 ([2]; potentiometric): 6.49 (1) | log K2 ([2]; potentiometric): 5.69 (1) | log K3 ([2]; potentiometric): 5.25 (1) | log K4 ([2]; potentiometric): 4.75 (1) | log K5 ([2]; potentiometric): 4.31 (1) | log K6 ([2]; potentiometric): 3.78 (1) | log K7 ([2]; potentiometric): <3 | log kA [2]: 5.64 | log K5 [3, 5]: 4.54 (0.06) | log K7 [3, 5]: 3.69 (0.03) | log K1 [3, 6]: 6.60 (0.03) | log K2 [3, 6]: 6.18 (0.04) | log K3 [3, 6]: 5.27 (0.08) | macroscopic pKa, 1st of the set [3, 7]: 3.82 | macroscopic pKa, 2nd of the set [3, 7]: 4.31 | macroscopic pKa, 3rd of the set [3, 7]: 4.73 | macroscopic pKa, 4th of the set [3, 7]: 5.18 | macroscopic pKa, 5th of the set [3, 7]: 5.64 | macroscopic pKa, 6th of the set [3, 7]: 6.06 | macroscopic pKa, 7th of the set [3, 7]: 6.54 | log k¯1 (averaged microconstant) [3, 8]: 5.75 (0.03) | log k¯2 (averaged microconstant) [3, 8]: 5.71 (0.04) | log k¯3 (averaged microconstant) [3, 8]: 5.04 (0.08) | log k¯5 (averaged microconstant) [3, 9]: 4.76 (0.06) | log k¯7 (averaged microconstant) [3, 9]: 4.53 (0.03) | log k¯1 (averaged microconstant) [3, 10]: 5.70 (0.02) | log k¯2 (averaged microconstant) [3, 10]: 5.58 (0.02) | log k¯3 (averaged microconstant) [3, 10]: 5.42 (0.02) | log k¯4 (averaged microconstant) [3, 10]: 5.18 (0.01) | log k¯5 (averaged microconstant) [3, 10]: 4.95 (0.02) | log k¯6 (averaged microconstant) [3, 10]: 4.78 (0.02) | log k¯7 (averaged microconstant) [3, 10]: 4.67 (0.02) | log K1 [3, 11]: 6.54 (0.02) | log K2 [3, 11]: 6.06 (0.02) | log K3 [3, 11]: 5.64 (0.02) | log K4 [3, 11]: 5.18 (0.01) | log K5 [3, 11]: 4.73 (0.02) | log K6 [3, 11]: 4.31 (0.02) | log K7 [3, 11]: 3.82 (0.02) | pε12 = averaged interactivity parameter pε¯ ([3]; site-binding model with a single interactivity parameter): 0.5144 | log kA (carboxylate core microconstant) ([3]; site-binding model with a single interactivity parameter pε12 (pε¯)): 5.697 and 5.70 | log k ([3]; site-binding model without any pair-interactivity parameters (unsatisfactory fit)): 5.17

O=C(O)CCSSCCC(=O)O [DTDPA, 3,3′-dithiodipropionic acid, reference compound]
log K1 ([3]; ED macro, Eq. (7) evaluation): 4.631 (0.005) | log K2 ([3]; ED macro, Eq. (7) evaluation): 3.883 (0.005) | log kA [3, 12]: 4.330 (0.005) | pεAB [3, 12]: 0.15 (0.01) | log K1 [3, 13]: 4.62 (0.06) | log K2 [3, 13]: 3.87 (0.07) | log kA [3, 14]: 4.32 (0.06) | pεAB [3, 14]: 0.15 (0.01) | log K1 [3, 15]: 4.630 (0.005) | log K2 [3, 15]: 3.88 (0.01) | log K1 [4, 16]: 4.47 | log K2 [4, 16]: 3.88 | log kA [4, 16]: 4.16 | pεAB [4, 16]: -0.01 | pε ([4]; earlier literature, almost independent carboxylate protonations): ≈ 0 | log kA ([4]; literature value): 4.16
